From article PMC3388080 (PLoS ONE, 2012)

Tested on: male Sprague-Dawley rats
Experiment: EEG/EMG/Tcore/LMA telemetry sleep study 2 (EMPA vs ZOL)
Assay type: in vivo, rat
Details: for REM:NR ratio: 6 h after dosing
Procedure: All rodent electroencephalograph (EEG) studies were performed at SRI International. Three groups of eight male Sprague-Dawley rats (300±25 g; Charles River, Wilmington, MA) were implanted with chronic recording devices (F40-EET, Data Sciences Inc., St Paul, MN) for continuous recordings of EEG, electromyograph (EMG), core body temperature (Tcore), and LMA via telemetry as previously described. Data recording and scoring were performed as previously reported (see also Supplemental Material and Methods). The EEG and EMG data were scored in 10 sec epochs for waking (W), rapid eye movement sleep (REM), and non-REM sleep (NR). Tcore and LMA (counts per minute) were analyzed as hourly means. Data from the EEG studies are reported in hourly means such that the hourly time ZT1 refers to the hour between time points ZT0 and ZT1.
For each of the three separate studies, a repeated measures counter-balanced design was employed in which each rat received five separate dosings. […] All dosings were administered ip in a volume of 2 ml/kg. A minimum of 3 d elapsed between doses. Dosing occurred during the middle of the rats’ normal active period at the start of ZT19 and was typically completed within 10 min. Animals were continuously recorded for 6 h prior to dosing and for 18 h following dosing.

Compound: CCN(Cc1cccnc1)C(=O)CN(c1ccc(OC)nc1)S(=O)(=O)c1ccccc1C [EMPA, N-(Ethyl-2-[(6-methoxy-pyridin-3-yl)-(toluene-2-sulfonyl)-amino]-N-pyridin-3-ylmethyl-acetamide)]
- LMA (in words) (100 mg/kg ip, across 6 h, vs vehicle): LMA was decreased
- cumulative NR (in words) (100 mg/kg ip, first 4 and 6 h periods): increased cumulative NR
- NR bout duration (6 h Average, 30 mg/kg ip): 1.43 ±0.14
- REM bout duration (6 h Average, 30 mg/kg ip): 0.88 ± 0.09
- W bout duration (6 h Average, 30 mg/kg ip): 5.35 ±0.77
- NR bout duration (6 h Average, 100 mg/kg ip): 1.28 ± 0.12^+
- REM bout duration (6 h Average, 100 mg/kg ip): 0.96 ± 0.09
- W bout duration (6 h Average, 100 mg/kg ip): 3.54 ± 0.20
- NR bout duration (6 h Average, EMPA 10 mg/kg ip): 1.34 ± 0.17
- REM bout duration (6 h Average, EMPA 10 mg/kg ip): 0.79 ± 0.09
- W bout duration (6 h Average, EMPA 10 mg/kg ip): 5.56 ± 0.52
- Number of NR bouts (6 h Total, 30 mg/kg ip): 68.80 ± 7.18
- Number of REM bouts (6 h Total, 30 mg/kg ip): 22.10 ± 3.30^+
- Number of W bouts (6 h Total, 30 mg/kg ip): 51.30 ± 4.95
- Number of NR bouts (6 h Total, 100 mg/kg ip): 84.80 ± 5.06
- Number of REM bouts (6 h Total, 100 mg/kg ip): 20.00 ± 1.93^+
- Number of W bouts (6 h Total, 100 mg/kg ip): 65.10 ± 3.37
- Number of NR bouts (6 h Total, EMPA 10 mg/kg ip): 68.80 ±6.22
- Number of REM bouts (6 h Total, EMPA 10 mg/kg ip): 18.10 ± 2.28^+
- Number of W bouts (6 h Total, EMPA 10 mg/kg ip): 50.20 ±5.70
- REM:NR ratio (10 mg/kg ip (EMPA)): 0.16±0.019^+
- REM:NR ratio (30 mg/kg ip): 0.21±0.032^+
- REM:NR ratio (100 mg/kg ip): 0.18±0.027^+
- NR bout duration (ZT19, 30 mg/kg ip): 1.27± 0.15^+
- Number of NR bouts (ZT19, 30 mg/kg ip): 9.90 ± 1.60
- Number of REM bouts (ZT19, 30 mg/kg ip): 1.20± 0.49
- Number of W bouts (ZT19, 30 mg/kg ip): 6.20± 0.98
- REM bout duration (ZT19, 30 mg/kg ip): 0.62± 0.22
- W bout duration (ZT19, 30 mg/kg ip): 11.89± 5.40
- NR bout duration (ZT19, 100 mg/kg ip): 1.11± 0.19^+
- Number of NR bouts (ZT19, 100 mg/kg ip): 10.80± 2.39
- Number of REM bouts (ZT19, 100 mg/kg ip): 0.90± 0.46
- Number of W bouts (ZT19, 100 mg/kg ip): 9.80± 2.48
- REM bout duration (ZT19, 100 mg/kg ip): 0.86± 0.19
- W bout duration (ZT19, 100 mg/kg ip): 13.14± 5.99
- NR bout duration (ZT19, EMPA 10 mg/kg ip): 1.60± 0.25^+
- Number of NR bouts (ZT19, EMPA 10 mg/kg ip): 7.40 ± 2.00
- Number of REM bouts (ZT19, EMPA 10 mg/kg ip): 1.60± 0.67
- Number of W bouts (ZT19, EMPA 10 mg/kg ip): 4.60± 1.25
- REM bout duration (ZT19, EMPA 10 mg/kg ip): 0.64± 0.15
- W bout duration (ZT19, EMPA 10 mg/kg ip): 16.42± 5.00
- NR bout duration (ZT20, 30 mg/kg ip): 1.50± 0.28^+
- Number of NR bouts (ZT20, 30 mg/kg ip): 12.50± 2.18
- Number of REM bouts (ZT20, 30 mg/kg ip): 4.40± 0.96^+
- Number of W bouts (ZT20, 30 mg/kg ip): 8.30± 1.27
- REM bout duration (ZT20, 30 mg/kg ip): 0.87± 0.13
- W bout duration (ZT20, 30 mg/kg ip): 9.83± 5.62
- NR bout duration (ZT20, 100 mg/kg ip): 1.86± 0.28^+
- Number of NR bouts (ZT20, 100 mg/kg ip): 16.50± 2.03
- Number of REM bouts (ZT20, 100 mg/kg ip): 5.00± 1.12^+
- Number of W bouts (ZT20, 100 mg/kg ip): 11.60± 1.11
- REM bout duration (ZT20, 100 mg/kg ip): 0.88± 0.08
- W bout duration (ZT20, 100 mg/kg ip): 2.46± 0.62
- NR bout duration (ZT20, EMPA 10 mg/kg ip): 1.15± 0.15^+
- Number of NR bouts (ZT20, EMPA 10 mg/kg ip): 14.00±2.52
- Number of REM bouts (ZT20, EMPA 10 mg/kg ip): 4.10± 1.11
- Number of W bouts (ZT20, EMPA 10 mg/kg ip): 10.70± 1.85
- REM bout duration (ZT20, EMPA 10 mg/kg ip): 0.90± 0.18
- W bout duration (ZT20, EMPA 10 mg/kg ip): 9.37± 5.67
- NR bout duration (ZT21, 30 mg/kg ip): 1.52± 0.21
- Number of NR bouts (ZT21, 30 mg/kg ip): 15.90± 2.21
- Number of REM bouts (ZT21, 30 mg/kg ip): 5.80± 1.35
- Number of W bouts (ZT21, 30 mg/kg ip): 11.70± 1.55
- REM bout duration (ZT21, 30 mg/kg ip): 1.01 ± 0.11
- W bout duration (ZT21, 30 mg/kg ip): 3.04± 0.83
- NR bout duration (ZT21, 100 mg/kg ip): 1.17± 0.11
- Number of NR bouts (ZT21, 100 mg/kg ip): 17.00± 2.91
